Reference: US20020137929A1, “1 - (3-heterocyclylphenyl) isothiourea, -isourea, -guanidine and -amidine herbicidal agents” (Intellectual Property Department, BASF Aktiengesellschaft, priority 1998, published 2002)

Columns and labels:
[1] = system: SAGPY (Arrowhead (Pygmaea)); test: Preemergence weed control under flooded paddy conditions; assay type: in vivo, Sagittaria pygmaea; conditions: rated 3-4 weeks after treatment
Method in brief: (§1)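 First, seeds or propagules go into the top 0.5 cm of silt loam; next, water is held 1.5 to 3 cm over the soil; then compound (50/50 acetone/water) is pipetted into it at about 0.0313 to 0.500 kg/ha; finally plants are rated visually 0-9 after three to four weeks.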

[2] = system: CHEAL (Lambsquarters, Common); test: Postemergence herbicidal evaluation; assay type: in vivo, Chenopodium album
Method in brief: (§2)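 Scores (0–9) reflect plant stand, vigor, malformation, size, chlorosis and general appearance relative to control, read 4 to 5 weeks after treatment and averaged where tests were repeated. Application: about 0.0156–0.500 kg/ha sprayed at 40 psi onto two-week seedlings.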

[3] = system: CHEAL (Lambsquarters, Common); test: Preemergence herbicidal evaluation; assay type: in vivo, Chenopodium album; conditions: rated 4-5 weeks after treatment
Method in brief: (§3)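 In this greenhouse assay, monocot and dicot seeds are planted in soil and treated prior to emergence with an aqueous acetone spray (about 0.0156-0.500 kg/ha). Plants are assessed visually against control on a 0-9 scale after 4-5 weeks.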

CASOB (Sicklepod) [4] = test: Preemergence herbicidal evaluation; assay type: in vivo, Cassia obtusifolia; conditions: rated 4-5 weeks after treatment
Method in brief: as §3

[5] = system: IPOHE (Morningglory, Ivyleaf); test: Postemergence herbicidal evaluation; assay type: in vivo, Ipomoea hederacea
Method in brief: as §2

MOOVA (Monochoria) = test: Preemergence weed control under flooded paddy conditions; assay type: in vivo, Monochoria vaginalis; conditions: rated 3-4 weeks after treatment
Method in brief: as §1

[6] = system: GLXMAW (Soybean, Williams); test: Postemergence herbicidal evaluation; assay type: in vivo, Glycine max, (L.) Merr. cv Williams
Method in brief: as §2

[7] = system: IPOHE (Morningglory, Ivyleaf); test: Preemergence herbicidal evaluation; assay type: in vivo, Ipomoea hederacea; conditions: rated 4-5 weeks after treatment
Method in brief: as §3

[8] = system: TRZAWR (Wheat, Winter, cv Riband); test: Postemergence herbicidal evaluation; assay type: in vivo, Triticum aestivum
Method in brief: as §2

AMBEL (Ragweed, Common) [9] = test: Preemergence herbicidal evaluation; assay type: in vivo, Ambrosia artemisifolia; conditions: rated 4-5 weeks after treatment
Method in brief: as §3

ORYSAT (Rice, Tebonnet) = test: Preemergence herbicidal evaluation; assay type: in vivo, Oryza sativa, (L.) Tebonnet; conditions: rated 4-5 weeks after treatment
Method in brief: as §3

[10] = system: GLXMAW (Soybean, Williams); test: Preemergence herbicidal evaluation; assay type: in vivo, Glycine max, (L.) Merr. cv Williams; conditions: rated 4-5 weeks after treatment
Method in brief: as §3

CASOB (Sicklepod) [11] = test: Postemergence herbicidal evaluation; assay type: in vivo, Cassia obtusifolia
Method in brief: as §2

ABUTH (Velvetleaf) = test: Preemergence herbicidal evaluation; assay type: in vivo, Abutilon theophrasti; conditions: rated 4-5 weeks after treatment
Method in brief: as §3

ECHCG (Barnyardgrass) = test: Postemergence herbicidal evaluation; assay type: in vivo, Echinochloa crus-galli
Method in brief: as §2

AMBEL (Ragweed, Common) [12] = test: Postemergence herbicidal evaluation; assay type: in vivo, Ambrosia artemisifolia
Method in brief: as §2

Question: `Cn1c(C(F)(F)F)cc(=O)n(-c2cc(N=C3SCC(=O)N3[C@@H](Cc3ccccc3)C(=O)O)c(Cl)cc2F)c1=O` [Compound 53, α-Benzyl-2-{{2-chloro-5-[3,6-dihydro-3-methyl-2,6-dioxo-4-(trifluoromethyl)-1(2H)-pyrimidinyl]-4-fluorophenyl}imino}-4-oxo-3-thiazolidineacetic acid, L-] was tested. Which “Herbicidal rating SAGPY” value ([1]; 0.0313 kg/ha) did it give?
Answer: 0.0

Question: What about the “Herbicidal rating SAGPY” value ([1]; 0.0625 kg/ha) of the same compound?
Answer: 0.0

Question: And the “Herbicidal rating SAGPY” value ([1]; 0.1250 kg/ha)?
Answer: 0.0

Question: What about the “Herbicidal rating SAGPY” value ([1]; 0.2500 kg/ha) of the same compound?
Answer: 0.0

Question: What about the “Postemergence herbicidal rating CHEAL” value ([2]; Rate 0.0158 kg/ha) of the same compound?
Answer: 7.0

Question: And the “Postemergence herbicidal rating CHEAL” value ([2]; Rate 0.0315 kg/ha)?
Answer: 9.0

Question: And the “Postemergence herbicidal rating CHEAL” value ([2]; Rate 0.0630 kg/ha)?
Answer: 9.0

Question: And the “Preemergence herbicidal rating CHEAL” value ([3]; rate 0.0313 kg/ha)?
Answer: 9.0

Question: What about the “Preemergence herbicidal rating CHEAL” value ([3]; rate 0.0625 kg/ha) of the same compound?
Answer: 9.0

Question: What about the “Preemergence herbicidal rating CHEAL” value ([3]; rate 0.1250 kg/ha) of the same compound?
Answer: 9.0

Question: And the “Preemergence herbicidal rating CHEAL” value ([3]; rate 0.2500 kg/ha)?
Answer: 9.0

Question: What about the “Preemergence herbicidal rating CASOB” value (CASOB (Sicklepod) [4]; rate 0.0313 kg/ha) of the same compound?
Answer: 0.0

Question: And the “Preemergence herbicidal rating CASOB” value (CASOB (Sicklepod) [4]; rate 0.0625 kg/ha)?
Answer: 0.0

Question: And the “Preemergence herbicidal rating CASOB” value (CASOB (Sicklepod) [4]; rate 0.1250 kg/ha)?
Answer: 1.0

Question: And the “Preemergence herbicidal rating CASOB” value (CASOB (Sicklepod) [4]; rate 0.2500 kg/ha)?
Answer: 1.0

Question: What about the “Postemergence herbicidal rating IPOHE” value ([5]; Rate 0.0158 kg/ha) of the same compound?
Answer: 9.0

Question: What about the “Postemergence herbicidal rating IPOHE” value ([5]; Rate 0.0315 kg/ha) of the same compound?
Answer: 9.0

Question: And the “Postemergence herbicidal rating IPOHE” value ([5]; Rate 0.0630 kg/ha)?
Answer: 9.0

Question: What about the “Herbicidal rating MOOVA” value (MOOVA (Monochoria); 0.0313 kg/ha) of the same compound?
Answer: 2.0

Question: What about the “Herbicidal rating MOOVA” value (MOOVA (Monochoria); 0.0625 kg/ha) of the same compound?
Answer: 2.0

Question: And the “Herbicidal rating MOOVA” value (MOOVA (Monochoria); 0.1250 kg/ha)?
Answer: 9.0

Question: And the “Herbicidal rating MOOVA” value (MOOVA (Monochoria); 0.2500 kg/ha)?
Answer: 9.0

Question: And the “Postemergence herbicidal rating GLXMAW” value ([6]; Rate 0.0158 kg/ha)?
Answer: 9.0

Question: And the “Postemergence herbicidal rating GLXMAW” value ([6]; Rate 0.0315 kg/ha)?
Answer: 9.0

Question: And the “Postemergence herbicidal rating GLXMAW” value ([6]; Rate 0.0630 kg/ha)?
Answer: 9.0

Question: And the “Preemergence herbicidal rating IPOHE” value ([7]; rate 0.0313 kg/ha)?
Answer: 0.0

Question: What about the “Preemergence herbicidal rating IPOHE” value ([7]; rate 0.0625 kg/ha) of the same compound?
Answer: 9.0

Question: And the “Preemergence herbicidal rating IPOHE” value ([7]; rate 0.1250 kg/ha)?
Answer: 9.0

Question: What about the “Preemergence herbicidal rating IPOHE” value ([7]; rate 0.2500 kg/ha) of the same compound?
Answer: 9.0

Question: What about the “Postemergence herbicidal rating TRZAWR” value ([8]; Rate 0.0158 kg/ha) of the same compound?
Answer: 2.5

Question: What about the “Postemergence herbicidal rating TRZAWR” value ([8]; Rate 0.0315 kg/ha) of the same compound?
Answer: 3.0

Question: What about the “Postemergence herbicidal rating TRZAWR” value ([8]; Rate 0.0630 kg/ha) of the same compound?
Answer: 4.0

Question: What about the “Preemergence herbicidal rating AMBEL” value (AMBEL (Ragweed, Common) [9]; rate 0.0313 kg/ha) of the same compound?
Answer: 0.0

Question: And the “Preemergence herbicidal rating AMBEL” value (AMBEL (Ragweed, Common) [9]; rate 0.0625 kg/ha)?
Answer: 9.0

Question: And the “Preemergence herbicidal rating AMBEL” value (AMBEL (Ragweed, Common) [9]; rate 0.1250 kg/ha)?
Answer: 9.0

Question: And the “Preemergence herbicidal rating AMBEL” value (AMBEL (Ragweed, Common) [9]; rate 0.2500 kg/ha)?
Answer: 9.0

Question: And the “Preemergence herbicidal rating ORYSAT” value (ORYSAT (Rice, Tebonnet); rate 0.0313 kg/ha)?
Answer: 0.0

Question: And the “Preemergence herbicidal rating ORYSAT” value (ORYSAT (Rice, Tebonnet); rate 0.0625 kg/ha)?
Answer: 1.0

Question: And the “Preemergence herbicidal rating ORYSAT” value (ORYSAT (Rice, Tebonnet); rate 0.1250 kg/ha)?
Answer: 5.0

Question: And the “Preemergence herbicidal rating ORYSAT” value (ORYSAT (Rice, Tebonnet); rate 0.2500 kg/ha)?
Answer: 7.0

Question: What about the “Preemergence herbicidal rating GLXMAW” value ([10]; rate 0.0313 kg/ha) of the same compound?
Answer: 0.0

Question: And the “Preemergence herbicidal rating GLXMAW” value ([10]; rate 0.0625 kg/ha)?
Answer: 0.0

Question: What about the “Preemergence herbicidal rating GLXMAW” value ([10]; rate 0.1250 kg/ha) of the same compound?
Answer: 2.0

Question: What about the “Preemergence herbicidal rating GLXMAW” value ([10]; rate 0.2500 kg/ha) of the same compound?
Answer: 4.0

Question: What about the “Postemergence herbicidal rating CASOB” value (CASOB (Sicklepod) [11]; Rate 0.0158 kg/ha) of the same compound?
Answer: 4.0

Question: What about the “Postemergence herbicidal rating CASOB” value (CASOB (Sicklepod) [11]; Rate 0.0315 kg/ha) of the same compound?
Answer: 7.0

Question: And the “Postemergence herbicidal rating CASOB” value (CASOB (Sicklepod) [11]; Rate 0.0630 kg/ha)?
Answer: 9.0

Question: And the “Preemergence herbicidal rating ABUTH” value (ABUTH (Velvetleaf); rate 0.0313 kg/ha)?
Answer: 7.0

Question: What about the “Preemergence herbicidal rating ABUTH” value (ABUTH (Velvetleaf); rate 0.0625 kg/ha) of the same compound?
Answer: 9.0

Question: And the “Preemergence herbicidal rating ABUTH” value (ABUTH (Velvetleaf); rate 0.1250 kg/ha)?
Answer: 9.0

Question: And the “Preemergence herbicidal rating ABUTH” value (ABUTH (Velvetleaf); rate 0.2500 kg/ha)?
Answer: 9.0

Question: What about the “Postemergence herbicidal rating ECHCG” value (ECHCG (Barnyardgrass); Rate 0.0158 kg/ha) of the same compound?
Answer: 2.0

Question: What about the “Postemergence herbicidal rating ECHCG” value (ECHCG (Barnyardgrass); Rate 0.0315 kg/ha) of the same compound?
Answer: 3.0

Question: And the “Postemergence herbicidal rating ECHCG” value (ECHCG (Barnyardgrass); Rate 0.0630 kg/ha)?
Answer: 9.0

Question: What about the “Postemergence herbicidal rating AMBEL” value (AMBEL (Ragweed, Common) [12]; Rate 0.0158 kg/ha) of the same compound?
Answer: 9.0

Question: And the “Postemergence herbicidal rating AMBEL” value (AMBEL (Ragweed, Common) [12]; Rate 0.0315 kg/ha)?
Answer: 9.0

Question: And the “Postemergence herbicidal rating AMBEL” value (AMBEL (Ragweed, Common) [12]; Rate 0.0630 kg/ha)?
Answer: 9.0
